Reference: patent publication US11713335B2, “Aminocoumarin compounds and methods of their use” (President and Fellows of Harvard College, priority 2018, dated 2023)
In brackets after ≈: the same amount, converted by molar mass. Structures can show the parent of a compound that is named as a salt. Where two headings read alike, the source gives them in different places.

How the values were obtained:
[1] = test system: E. cloacae 13047; experiment: Minimal inhibitory concentration, E. cloacae 13047; format: cell-based; conditions: 16 hour minimal inhibitory concentration at 37° C., read-out: MIC (μM) E. cloacae 13047
Outline: (§1)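 MIC, in µM, taken as the lowest compound concentration preventing growth by OD600 after 16 h static incubation at 37 °C. Compound was twofold serially diluted in bacteria grown overnight in LB, or TSA for S. aureus, and diluted 1:100 twice.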

[2] = test system: WT E. coli; experiment: Minimal inhibitory concentration in wild-type E. coli; format: cell-based, Escherichia coli; conditions: wild-type E. coli, 37° C., 16 hours, read-out: MIC (μM) in WT E. coli
Description: General Procedure for Determination of Minimal Inhibitory Concentrations
Overnight cultures (5 mL) of bacterial strains were grown in LB media or TSA media (for S. aureus) at 37° C. and with shaking at 220 rpm until saturation. The overnight culture was diluted serially 1:100 (50 μL in 5 mL sterile media) and then 1:100 (250 μL in 25 mL sterile media). The 25 mL of diluted culture was then dispensed to a sterile 96 well plate (Corning #3370). 198 μL of culture were dispensed into row A and 100 μL of this culture were dispensed into rows B-H. Aminocoumarin compound (DMSO stock) were added to the first row and then the row was mixed by pipetting. 100 μL of culture from row A were transferred to row B and the serial dilution continued until the final 100 μL from row H were discarded. The plate was incubated without shaking in a 37° C. for 16 hours and then read by visible light spectrophotometer (Molecular Devices) at 600 nm. The minimal inhibitory concentration (MIC) was determined as the lowest concentration of compound concentration that inhibited the growth of bacteria.

[3] = test system: E. coli MC4100; experiment: Minimal inhibitory concentration, E. coli MC4100; format: cell-based; conditions: 16 hour minimal inhibitory concentration at 37° C., read-out: MIC (μM) E. coli MC4100 ara+
Outline: as §1

[4] = test system: K. pneumoniae 700721; experiment: Minimal inhibitory concentration, K. pneumoniae 700721; format: cell-based; conditions: 16 hour minimal inhibitory concentration at 37° C., read-out: MIC (μM) K. pneumoniae 700721
Outline: as §1

[5] = test system: S. aureus RN4220; experiment: Minimal inhibitory concentration, S. aureus RN4220; format: cell-based; conditions: 16 hour minimal inhibitory concentration at 37° C., read-out: MIC (μM) S. aureus RN4220
Outline: as §1

[6] = test system: S. aureus MW2; experiment: Minimal inhibitory concentration, S. aureus MW2; format: cell-based; conditions: 16 hour minimal inhibitory concentration at 37° C., read-out: MIC (μM) S. aureus MW2 (MRSA)
Outline: as §1

[7] = test system: E. coli 25922; experiment: Minimal inhibitory concentration, E. coli 25922; format: cell-based; conditions: 16 hour minimal inhibitory concentration at 37° C., read-out: MIC (μM) E. coli 25922
Outline: as §1

[8] = test system: A. baumannii 19606; experiment: Minimal inhibitory concentration, A. baumannii 19606; format: cell-based; conditions: 16 hour minimal inhibitory concentration at 37° C., read-out: MIC (μM) A. baumannii 19606
Outline: as §1

[9] = Staphylococcus aureus, RN4220, 16 h
[10] = Staphylococcus aureus, MRSA, 16 h
[11] = Acinetobacter baumannii, 19606, 16 h

SMILES | MIC [1] [µM] | MIC [2] [µM] | MIC [3] [µM] | MIC [4] [µM] | MIC [5] [µM] | MIC [6] [µM] | MIC [7] [µM] | MIC [8] [µM] | MIC ([1]; Enterobacter cloacae, 13047) [µM] | MIC ([2]; Escherichia coli) [µM] | MIC ([3]; Escherichia coli, MC4100, 16 h) [µM] | MIC ([4]; Klebsiella pneumoniae, 700721) [µM] | MIC [5, 9] [µM] | MIC [6, 10] [µM] | MIC ([7]; Escherichia coli, 25922, 16 h) [µM] | MIC [8, 11] [µM]
CO[C@@H]1[C@@H](OC(N)=O)[C@@H](O)[C@H](Oc2ccc3c(O)c(NC(=O)c4cccc(-c5cccc(OC(F)(F)F)c5)c4)c(=O)oc3c2C)OC1(C)C [Compound 58] | >100 | 89 (≈ 61.3 µg/mL) | 89 (≈ 61.3 µg/mL) | >100 | 0.36 (≈ 0.248 µg/mL) | 0.18 (≈ 0.124 µg/mL) | >200 | 18 (≈ 12.4 µg/mL) | – | – | – | – | – | – | – | –
CO[C@@H]1[C@@H](OC(N)=O)[C@@H](O)[C@H](Oc2ccc3c(O)c(NC(=O)c4cccc(-c5cccc(C(F)(F)F)c5)c4)c(=O)oc3c2C)OC1(C)C [Compound 56] | >100 | >300 | >200 | >100 | 0.74 (≈ 0.498 µg/mL) | 0.46 (≈ 0.309 µg/mL) | >200 | 37 (≈ 24.9 µg/mL) | – | – | – | – | – | – | – | –
CO[C@@H]1[C@@H](OC(N)=O)[C@@H](O)[C@H](Oc2ccc3c(O)c(NC(=O)Nc4cccc(-c5ccccc5)c4)c(=O)oc3c2C)OC1(C)C [Compound 3] | – | – | – | – | – | – | – | – | > 100 | > 300 | > 200 | > 100 | 81 (≈ 50.2 µg/mL) | 81 (≈ 50.2 µg/mL) | > 200 | > 50
CO[C@@H]1[C@@H](OC(N)=O)[C@@H](O)[C@H](Oc2ccc3c(O)c(NC(=O)c4ccc(C5CCCCC5)cc4)c(=O)oc3c2C)OC1(C)C [Compound 41] | – | – | – | – | – | – | – | – | > 100 | > 300 | > 200 | > 100 | 20 (≈ 12.2 µg/mL) | 20 (≈ 12.2 µg/mL) | > 200 | > 50
CO[C@@H]1[C@@H](OC(N)=O)[C@@H](O)[C@H](Oc2ccc3c(O)c(NC(=O)c4cccc(-c5cccs5)c4)c(=O)oc3c2C)OC1(C)C [Compound 22] | – | – | – | – | – | – | – | – | > 100 | 89 (≈ 54.3 µg/mL) | 89 (≈ 54.3 µg/mL) | > 100 | 10 (≈ 6.11 µg/mL) | 10 (≈ 6.11 µg/mL) | 164 (≈ 100 µg/mL) | > 50
CO[C@@H]1[C@@H](OC(N)=O)[C@@H](O)[C@H](Oc2ccc3c(O)c(NC(=O)c4cccc(-c5ccc(C(C)C)cc5)c4)c(=O)oc3c2C)OC1(C)C [Compound 48] | – | – | – | – | – | – | – | – | > 100 | 89 (≈ 57.6 µg/mL) | 89 (≈ 57.6 µg/mL) | 77 (≈ 49.8 µg/mL) | 0.77 (≈ 0.498 µg/mL) | 0.48 (≈ 0.31 µg/mL) | 77 (≈ 49.8 µg/mL) | 19 (≈ 12.3 µg/mL)
CO[C@@H]1[C@@H](OC(N)=O)[C@@H](O)[C@H](Oc2ccc3c(O)c(NC(=O)C(c4ccccc4)c4ccccc4)c(=O)oc3c2C)OC1(C)C [Compound 5] | – | – | – | – | – | – | – | – | > 100 | > 300 | > 200 | > 100 | > 100 | 80 (≈ 49.5 µg/mL) | > 200 | > 50
CO[C@@H]1[C@@H](OC(N)=O)[C@@H](O)[C@H](Oc2ccc3c(O)c(NC(=O)c4cccc(-c5cccc(F)c5)c4)c(=O)oc3c2C)OC1(C)C [Compound 38] | – | – | – | – | – | – | – | – | > 100 | 26 (≈ 16.2 µg/mL) | 26 (≈ 16.2 µg/mL) | > 100 | 5 (≈ 3.11 µg/mL) | 10 (≈ 6.23 µg/mL) | 40 (≈ 24.9 µg/mL) | > 50
CO[C@@H]1[C@@H](OC(N)=O)[C@@H](O)[C@H](Oc2ccc3c(O)c(NC(=O)c4cccc(-c5c(C)cccc5C)c4)c(=O)oc3c2C)OC1(C)C [Compound 21] | – | – | – | – | – | – | – | – | > 100 | 133 (≈ 84.1 µg/mL) | 133 (≈ 84.1 µg/mL) | > 100 | 10 (≈ 6.33 µg/mL) | 10 (≈ 6.33 µg/mL) | > 200 | > 50
CO[C@@H]1[C@@H](OC(N)=O)[C@@H](O)[C@H](Oc2ccc3c(O)c(NC(=O)c4ccc(O)c(C/C=C/CC(=O)O)c4)c(=O)oc3c2C)OC1(C)C [Compound 80] | – | >300 | – | – | – | – | – | – | – | – | – | – | – | – | – | –
CO[C@@H]1[C@@H](OC(N)=O)[C@@H](O)[C@H](Oc2ccc3c(O)c(NC(=O)c4ccc(C)o4)c(=O)oc3c2C)OC1(C)C [Compound 12] | – | >300 | – | – | – | – | – | – | – | – | – | – | – | – | – | –
CO[C@@H]1[C@@H](OC(N)=O)[C@@H](O)[C@H](Oc2ccc3c(O)c(NC(=O)c4cccc(-c5cn[nH]c5)c4)c(=O)oc3c2C)OC1(C)C [Compound 18] | – | >300 | – | – | – | – | – | – | – | – | – | – | – | – | – | –
COC1[C@H](OC(N)=O)C(O)[C@H](Oc2ccc3c(O)c(N)c(=O)oc3c2C)OC1(C)C (stereo partly drawn) [Compound 19, novenamine hydrochloride] | – | – | – | – | – | – | – | – | – | > 300 | – | – | – | – | – | –
CO[C@@H]1[C@H](OC(N)=O)C(O)[C@H](Oc2ccc3c(O)c(NS(=O)(=O)c4cccc(-c5ccccc5)c4)c(=O)oc3c2C)OC1(C)C (stereo partly drawn) [Compound 36] | – | – | – | – | – | – | – | – | – | > 300 | – | – | – | – | – | –
CO[C@@H]1[C@@H](OC(N)=O)[C@@H](O)[C@H](Oc2ccc3c(O)c(NC(=O)c4ccc(CN)cc4)c(=O)oc3c2C)OC1(C)C [Compound 207] | – | – | – | – | – | – | – | – | > 100 | – | > 200 | > 100 | > 100 | > 100 | > 200 | > 50
CO[C@@H]1[C@@H](OC(N)=O)[C@@H](O)[C@H](Oc2ccc3c(O)c(NC(=O)c4cccc(Oc5ccc(C(C)(C)C)cc5)c4)c(=O)oc3c2C)OC1(C)C [Compound 248] | – | – | – | – | – | – | – | – | > 100 | – | > 200 | > 100 | 2.3 (≈ 1.56 µg/mL) | 2.3 (≈ 1.56 µg/mL) | 148 (≈ 100 µg/mL) | > 50
C=CCOc1c(NC(=O)c2ccc(O)c(CC=C(C)C)c2)c(=O)oc2c(C)c(O[C@@H]3OC(C)(C)[C@H](OC)[C@@H](OC(N)=O)[C@H]3O)ccc12 [Compound 212] | – | – | – | – | – | – | – | – | > 100 | – | > 200 | > 100 | > 100 | > 100 | > 200 | > 50
CO[C@@H]1[C@@H](O)[C@@H](OC(=O)c2ccc[nH]2)[C@H](Oc2ccc3c(O)c(NC(=O)c4ccc(O)c(CC=C(C)C)c4)c(=O)oc3c2C)OC1(C)C [Compound 113] | >100 | – | >200 | >100 | 0.5 (≈ 0.331 µg/mL) | 0.24 (≈ 0.159 µg/mL) | >200 | 2 (≈ 1.33 µg/mL) | – | – | – | – | – | – | – | –
